The compounds below were run against TAAR1 (Mus musculus (Mouse), UniProt Q923Y8) (assay: Radioligand binding assay on TAAR1 (membranes of stably transfected HEK293 cells)). Settings: competition with [3H]-rac-2-(1,2,3,4-tetrahydro-1-naphthyl)-2-imidazoline, 4° C., 30 min.
Procedure: For the construction of expression plasmids the coding sequences of human, rat and mouse TAAR 1 were amplified from genomic DNA essentially as described by Lindemann et al.. The Expand High Fidelity PCR System (Roche Diagnostics) was used with 1.5 mM Mg^2+ and purified PCR products were cloned into pCR2.1—TOPO cloning vector (Invitrogen) following the instructions of the manufacturer. PCR products were subcloned into the pIRESneo2 vector (BD Clontech, Palo Alto, Calif.), and expression vectors were sequence verified before introduction in cell lines.
HEK293 cells (ATCC # CRL-1573) were cultured essentially as described Lindemann et al. (2005). For the generation of stably transfected cell lines HEK293 cells were transfected with the pIRESneo2 expression plasmids containing the TAAR coding sequences (described above) with Lipofectamine 2000 (Invitrogen) according to the instructions of the manufacturer, and 24 hrs post transfection the culture medium was supplemented with 1 mg/ml G418 (Sigma, Buchs, Switzerland). After a culture period of about 10 d clones were isolated, expanded and tested for responsiveness to trace amines (all compounds purchased from Sigma) with the cAMP Biotrak Enzyme immunoassay (EIA) System (Amersham) following the non-acetylation EIA procedure provided by the manufacturer. […] Membrane Preparation and Radioligand Binding
Cells at confluence were rinsed with ice-cold phosphate buffered saline without Ca^2+ and Mg^2+ containing 10 mM EDTA and pelleted by centrifugation at 1000 rpm for 5 min at 4° C. The pellet was then washed twice with ice-cold phosphate buffered saline and cell pellet was frozen immediately by immersion in liquid nitrogen and stored until use at −80° C. Cell pellet was then suspended in 20 ml HEPES-NaOH (20 mM), pH 7.4 containing 10 mM EDTA, and homogenized with a Polytron (PT 3000, Kinematica) at 10,000 rpm for 10 s. The homogenate was centrifuged at 48,000×g for 30 min at 4° C. and the pellet resuspended in 20 ml HEPES-NaOH (20 mM), pH 7.4 containing 0.1 mM EDTA (buffer A), and homogenized with a Polytron at 10,000 rpm for 10 s. The homogenate was then centrifuged at 48,000×g for 30 min at 4° C. and the pellet resuspended in 20 ml buffer A, and homogenized with a Polytron at 10,000 rpm for 10 s. Protein concentration was determined by the method of Pierce (Rockford, Ill.). The homogenate was then centrifuged at 48,000×g for 10 min at 4° C., resuspended in HEPES-NaOH (20 mM), pH 7.0 including MgCl2 (10 mM) and […] homogenized with a Polytron at 10,000 rpm for 10 s.
Binding assay was performed at 4° C. in a final volume of 1 ml, and with an incubation time of 30 min. The radioligand [^3H]-rac-2-(1,2,3,4-tetrahydro-1-naphthyl)-2-imidazoline was used at a concentration equal to the calculated Kd value of 60 nM to give a bound at around 0.1% of the total added radioligand concentration, and a specific binding which represented approximately 70-80% of the total binding. Non-specific binding was defined as the amount of [^3H]-rac-2-(1,2,3,4-tetrahydro-1-naphthyl)-2-imidazoline bound in the presence of the appropriate unlabelled ligand (10 μM). Competing ligands were tested in a wide range of concentrations […]. […] Each experiment was performed in duplicate. All incubations were terminated by rapid filtration through UniFilter-96 plates (Packard Instrument Company) and glass filter GF/C, pre-soaked for at least 2 h in polyethylenimine 0.3%, and using a Filtermate 96 Cell Harvester (Packard Instrument Company). The tubes and filters were then washed 3 times with 1 ml aliquots of cold buffer B. Filters were not dried and soaked in Ultima gold (45 μl/well, Packard Instrument Company) and bound radioactivity was counted by a TopCount Microplate Scintillation Counter (Packard Instrument Company).

TAAR1, sequence (Q923Y8 whole entry): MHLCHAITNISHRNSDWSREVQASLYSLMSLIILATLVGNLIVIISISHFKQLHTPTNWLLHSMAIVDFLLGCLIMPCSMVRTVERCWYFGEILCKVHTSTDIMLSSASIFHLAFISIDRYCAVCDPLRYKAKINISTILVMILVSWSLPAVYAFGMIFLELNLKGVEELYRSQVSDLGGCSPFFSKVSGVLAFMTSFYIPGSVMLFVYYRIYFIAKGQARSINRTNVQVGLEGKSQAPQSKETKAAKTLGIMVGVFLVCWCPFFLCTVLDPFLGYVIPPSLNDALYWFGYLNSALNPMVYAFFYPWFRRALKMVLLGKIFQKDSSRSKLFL

Row | Ki | Compound
1 | 0.0014 µM | CC[C@@H](C[C@H]1COC(N)=N1)Oc1ccc(F)c(Cl)c1 [Example 120, (S)-4-[(S)-2-(3-Chloro-4-fluoro-phenoxy)-butyl]-4,5-dihydro-oxazol-2-ylamine]
2 | 0.0065 µM | CC[C@@H](C[C@H]1COC(N)=N1)Oc1ccc(Cl)cc1F [Example 123, (S)-4-[(S)-2-(4-Chloro-2-fluoro-phenoxy)-butyl]-4,5-dihydro-oxazol-2-ylamine]
3 | 0.0076 µM | C[C@H](C[C@H]1COC(N)=N1)Oc1cccc(Cl)c1 [Example 84, (S)-4-[(R)-2-(3-Chloro-phenoxy)-propyl]-4,5-dihydro-oxazol-2-ylamine]
4 | 0.0021 µM | NC1=N[C@@H](CCOc2ccc(F)cc2Cl)CO1 [Example 10, (S)-4-[2-(2-Chloro-4-fluoro-phenoxy)-ethyl]-4,5-dihydro-oxazol-2-ylamine]
5 | 0.0084 µM | CC(OC[C@H]1COC(N)=N1)c1ccccc1 (stereo partly drawn) [Example 24, (4S)-4-(1-Phenyl-ethoxymethyl)-4,5-dihydro-oxazol-2-ylamine]
6 | 0.0024 µM | C[C@@H](C[C@H]1COC(N)=N1)Oc1ccc(Br)cc1 [Example 71, (S)-4-[(S)-2-(4-Bromo-phenoxy)-propyl]-4,5-dihydro-oxazol-2-ylamine]
7 | 0.0064 µM | C[C@@H](C[C@H]1COC(N)=N1)Oc1ccccc1 [Example 81]
8 | 0.0037 µM | CC[C@@H](C[C@H]1COC(N)=N1)Oc1cccc(O)c1 [Example 141, 3-[(S)-1-((8)-2-Amino-4,5-dihydro-oxazol-4-ylmethyl)-propoxy]-phenol]
9 | 0.0006 µM | NC1=N[C@@H](CCC2(c3ccc(F)c(Cl)c3)CC2)CO1 [Example 91, (S)-4-{2-[1-(3-Chloro-4-fluoro-phenyl)-cyclopropyl]-ethyl}-4,5-dihydro-oxazol-2-ylamine]
10 | 0.0076 µM | COc1ccc(OCC[C@H]2COC(N)=N2)cc1 [Example 59, (S)-4-[2-(4-Methoxy-phenoxy)-ethyl]-4,5-dihydro-oxazol-2-ylamine]
11 | 0.0017 µM | CC[C@@H](C[C@H]1COC(N)=N1)Oc1ccc(F)c(F)c1 [Example 119, (S)-4-[(S)-2-(3,4-Difluoro-phenoxy)-butyl]-4,5-dihydro-oxazol-2-ylamine]
12 | 0.001 µM | CC[C@@H](C[C@H]1COC(N)=N1)Oc1ccc(Cl)cc1 [Example 107, (S)-4-[(S)-2-(4-Chloro-phenoxy)-butyl]-4,5-dihydro-oxazol-2-ylamine]
13 | 0.0011 µM | NC1=N[C@@H](CCOc2ccc(F)cc2F)CO1 [Example 11, (S)-4-[2-(2,4-Difluoro-phenoxy)-ethyl]-4,5-dihydro-oxazol-2-ylamine]
14 | 0.0039 µM | NC1=N[C@@H](CCOc2ccc(Oc3ccccc3)cc2)CO1 [Example 36, (S)-4-[2-(4-Phenoxy-phenoxy)-ethyl]-4,5-dihydro-oxazol-2-ylamine]
15 | 0.0001 µM | NC1=N[C@@H](CCOc2cccc(Br)c2)CO1 [Example 35, (S)-4-[2-(3-Bromo-phenoxy)-ethyl]-4,5-dihydro-oxazol-2-ylamine]
16 | 0.0036 µM | C[C@@H](C[C@H]1COC(N)=N1)Oc1ccc(Cl)c(F)c1 [Example 70, (S)-4-[(S)-2-(4-Chloro-3-fluoro-phenoxy)-propyl]-4,5-dihydro-oxazol-2-ylamine]
17 | 0.004 µM | C[C@@H](C[C@H]1COC(N)=N1)Oc1ccc(F)cc1F [Example 74, (S)-4-[(S)-2-(2,4-Difluoro-phenoxy)-propyl]-4,5-dihydro-oxazol-2-ylamine]
18 | 0.0028 µM | C[C@@H](C[C@H]1COC(N)=N1)Oc1ccc(Cl)cc1 [Example 45, (S)-4-[(S)-2-(4-Chloro-phenoxy)-propyl]-4,5-dihydro-oxazol-2-ylamine]
19 | 0.0041 µM | NC1=N[C@@H](CCOc2ccc(Cl)cc2F)CO1 [Example 58, (S)-4-[2-(4-Chloro-2-fluoro-phenoxy)-ethyl]-4,5-dihydro-oxazol-2-ylamine]
20 | 0.0013 µM | CCC(CC[C@H]1COC(N)=N1)c1cccc(C(F)(F)F)c1 (stereo partly drawn) [Example 28, (4S)-4-[3-(3-Trifluoromethyl-phenyl)-pentyl]-4,5-dihydro-oxazol-2-ylamine]
21 | 0.0086 µM | C[C@@H](C[C@H]1COC(N)=N1)Oc1ccc(Oc2ccccc2)cc1 [Example 79, (S)-4-[(S)-2-(4-Phenoxy-phenoxy)-propyl]-4,5-dihydro-oxazol-2-ylamine]
22 | 0.0011 µM | CC[C@@H](C[C@H]1COC(N)=N1)Oc1ccc2ccccc2c1 [Example 153, (S)-4-[(S)-2-(Naphthalen-2-yloxy)-butyl]-4,5-dihydro-oxazol-2-ylamine]
23 | 0.0007 µM | Cc1cccc(OCC[C@H]2COC(N)=N2)c1 [Example 32, (S)-4-(2-m-Tolyloxy-ethyl)-4,5-dihydro-oxazol-2-ylamine]
24 | 0.0032 µM | CC[C@@H](C[C@H]1COC(N)=N1)Oc1ccc(F)cc1 [Example 117, (S)-4-[(S)-2-(4-Fluoro-phenoxy)-butyl]-4,5-dihydro-oxazol-2-ylamine]
25 | 0.0037 µM | CC[C@@H](C[C@H]1COC(N)=N1)Oc1ccc(Cl)c(F)c1 [Example 113, (S)-4-[(S)-2-(4-Chloro-3-fluoro-phenoxy)-butyl]-4,5-dihydro-oxazol-2-ylamine]
26 | 0.0032 µM | C[C@H](OC[C@H]1COC(N)=N1)c1ccc(F)cc1 [Example 155, (S)-4-[(S)-1-(4-Fluoro-phenyl)-ethoxymethyl]-4,5-dihydro-oxazol-2-ylamine]
27 | 0.0011 µM | C[C@H](CC[C@H]1COC(N)=N1)c1ccc(F)cc1 [Example 116, (S)-4-[(R)-3-(4-Fluoro-phenyl)-butyl]-4,5-dihydro-oxazol-2-ylamine]

Row | Compound | Ki
28 | NC1=N[C@@H](CCOc2ccc(Cl)c(Cl)c2)CO1 [Example 57, (S)-4-[2-(3,4-Dichloro-phenoxy)-ethyl]-4,5-dihydro-oxazol-2-ylamine] | 0.0003 µM
29 | NC1=N[C@@H](CCSc2ccc(F)cc2)CO1 [Example 150, (S)-4-[2-(4-Fluoro-phenylsulfanyl)-ethyl]-4,5-dihydro-oxazol-2-ylamine] | 0.0007 µM
30 | CC(C)c1cccc(OCC[C@H]2COC(N)=N2)c1 [Example 21, (S)-4-[2-(3-Isopropyl-phenoxy)-ethyl]-4,5-dihydro-oxazol-2-ylamine] | 0.0017 µM
31 | CC[C@@H](C[C@H]1COC(N)=N1)Oc1ccc(F)cc1F [Example 114, (S)-4-[(S)-2-(2,4-Difluoro-phenoxy)-butyl]-4,5-dihydro-oxazol-2-ylamine] | 0.0019 µM
32 | CC(C)(CC[C@H]1COC(N)=N1)c1ccc(F)cc1 [Example 25, (S)-4-[3-(4-Fluoro-phenyl)-3-methyl-butyl]-4,5-dihydro-oxazol-2-ylamine] | 0.003 µM
33 | CC[C@@H](C[C@H]1COC(N)=N1)Oc1ccc(Cl)cc1Cl [Example 158, (S)-4-[(S)-2-(2,4-Dichloro-phenoxy)-butyl]-4,5-dihydro-oxazol-2-ylamine] | 0.0011 µM
34 | CC[C@@H](C[C@H]1COC(N)=N1)Oc1cc(F)c(F)cc1F [Example 152, (S)-4-[(S)-2-(2,4,5-Trifluoro-phenoxy)-butyl]-4,5-dihydro-oxazol-2-ylamine] | 0.0029 µM
35 | CC(C)(CC[C@H]1COC(N)=N1)c1ccccc1 [Example 7, (S)-4-(3-Methyl-3-phenyl-butyl)-4,5-dihydro-oxazol-2-ylamine] | 0.0032 µM
36 | C[C@H](C[C@H]1COC(N)=N1)Oc1ccc(Cl)c(Cl)c1 [Example 96, (S)-4-[(R)-2-(3,4-Dichloro-phenoxy)-propyl]-4,5-dihydro-oxazol-2-ylamine] | 0.0062 µM

— patent US8729113B2 (Hoffmann-La Roche Inc., priority 2008, dated 2014)
